# Experimental data as given in patent publication US8481534B2, “5- and 6-membered heterocyclic compounds” (EnVivo Pharmaceuticals, Inc., priority 2008, dated 2013).
# Biological target: Human PDE10A1 (Homo sapiens, UniProt Q9Y233)
# Test: hPDE10A1 enzyme inhibition ([3H]-cAMP hydrolysis, scintillation counting)
# Format: biochemical
# Settings: Human PDE10A1, [3H]-cAMP substrate, 20 minutes at 37° C.; read-out: hPDE10A1 IC50 Band
# Experimental: 50 μl samples of serially diluted Human PDE10A1 enzyme were incubated with 50 μl of [^3H]-cAMP for 20 minutes (at 37° C.). Reactions were carried out in Greiner 96 deep well 1 ml master-block. The enzyme was diluted in 20 mM Tris HCl pH7.4 and [^3H]-cAMP was diluted in 10 mM MgCl2, 40 mM Tris.HCl pH 7.4. The reaction was terminated by denaturing the PDE enzyme (at 70° C.) after which [^3H]-5′-AMP was converted to [^3H]-adenosine by adding 25 μl snake venom nucleotidase and incubating for 10 minutes (at 37° C.). Adenosine, being neutral, was separated from charged cAMP or AMP by the addition of 200 μl Dowex resin. Samples were shaken for 20 minutes then centrifuged for 3 minutes at 2,500 r.p.m. 50 μl of supernatant was removed and added to 200 μl of MicroScint-20 in white plates (Greiner 96-well Optiplate) and shaken for 30 minutes before reading on Perkin Elmer TopCount Scintillation Counter.
# To check inhibition profile 11 μl of serially diluted inhibitor was added to 50 μl of [^3H]-cAMP and 50 μl of diluted Human PDE10A1 and assay was carried out as in the enzyme activity assay. Data was analysed using Prism software (GraphPad Inc).
# Chain of Human PDE10A1 (Q9Y233 1-779 isoform Q9Y233-1): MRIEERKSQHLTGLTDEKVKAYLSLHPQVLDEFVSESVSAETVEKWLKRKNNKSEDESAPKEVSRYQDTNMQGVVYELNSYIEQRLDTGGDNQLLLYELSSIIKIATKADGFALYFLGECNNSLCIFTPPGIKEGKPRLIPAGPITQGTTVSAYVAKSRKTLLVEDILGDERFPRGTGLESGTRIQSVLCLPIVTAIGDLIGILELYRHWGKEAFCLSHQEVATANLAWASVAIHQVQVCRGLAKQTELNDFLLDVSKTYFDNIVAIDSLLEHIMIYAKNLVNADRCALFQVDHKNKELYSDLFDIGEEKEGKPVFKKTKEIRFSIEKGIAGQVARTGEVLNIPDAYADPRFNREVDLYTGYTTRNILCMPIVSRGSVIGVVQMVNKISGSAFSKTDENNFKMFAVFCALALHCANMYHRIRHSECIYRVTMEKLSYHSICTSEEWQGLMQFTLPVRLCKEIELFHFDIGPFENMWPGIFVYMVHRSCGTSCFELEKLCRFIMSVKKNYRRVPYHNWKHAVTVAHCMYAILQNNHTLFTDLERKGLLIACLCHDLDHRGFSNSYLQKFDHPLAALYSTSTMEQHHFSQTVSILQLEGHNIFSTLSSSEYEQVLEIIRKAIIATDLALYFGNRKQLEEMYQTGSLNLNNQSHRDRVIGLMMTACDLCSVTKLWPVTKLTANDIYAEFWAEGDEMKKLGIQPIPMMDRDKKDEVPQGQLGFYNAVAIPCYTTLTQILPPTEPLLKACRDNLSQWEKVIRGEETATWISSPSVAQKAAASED
row,SMILES,IC50 [nM]
1,"O=C1OCC(N2CCOCC2)=C1c1ccc(OCc2ccc3ccccc3n2)cc1 [Example 1085, 4-Morpholino-3-(4-(quinolin-2-ylmethoxy)phenyl)furan-2(5H)-one]",> 50
2,"COc1ccc(C2=C(c3ccc(OCc4cccc(C)n4)cc3)COC2=O)cc1 [Example 1095, 3-(4-methoxyphenyl)-4-(4-((6-methylpyridin-2-yl)methoxy)phenyl)furan-2(5H)-one]",> 50
3,"O=c1[nH][nH]c(-c2ccncc2)c1-c1ccc(OCc2ccc3ccccc3n2)cc1 [Example 1096, 5-(Pyridin-4-yl)-4-(4-(quinolin-2-ylmethoxy)phenyl)-1H-pyrazol-3(2H)-one]",> 50
4,"Cn1[nH]c(-c2ccncc2)c(-c2ccc(OCc3ccc4ccccc4n3)cc2)c1=O [Example 1097, 2-Methyl-5-(pyridin-4-yl)-4-(4-(quinolin-2-ylmethoxy)phenyl)-1H-pyrazol-3(2H)-one]",> 50
5,"O=C1OCC(c2cccnc2)=C1c1ccc(OCc2ccc3ccccc3n2)cc1 [Example 1098, 4-(Pyridin-3-yl)-3-(4-(quinolin-2-ylmethoxy)phenyl)furan-2(5H)-one]",> 50
6,"O=C1OCC(c2ccncc2)=C1c1ccc(OCc2ccc3ccccc3n2)c(Cl)c1 [Example 1099, 3-(3-chloro-4-(quinolin-2-ylmethoxy)phenyl)-4-(pyridin-4-yl)furan-2(5H)-one]",> 50

# Continued, values first:
row,IC50 [nM],SMILES
1,≤ 50,COc1ccc(C2=C(c3ccc(OCc4ccc5ccccc5n4)cc3)COC2=O)cc1 [Example 14]
2,≤ 50,"O=C1OCC(c2ccncc2)=C1c1ccc(OCc2ccc3ccccc3n2)cc1 [Example 37, 4-(Pyridin-4-yl)-3-(4-(quinolin-2-ylmethoxy)phenyl)furan-2(5H)-one]"
3,≤ 50,"COc1ccc(C2=C(c3ccc(OCc4ccc5ccccc5n4)cc3)C(=O)OC2)cc1F [Example 53, 4-(3-fluoro-4-methoxyphenyl)-3-(4-(quinolin-2-ylmethoxy)phenyl)furan-2(5H)-one]"
4,≤ 50,"COc1ccc(C2=C(c3ccc(OCc4ccc5ccccc5n4)cc3)C(=O)OC2)cc1Cl [Example 54, 4-(3-Chloro-4-methoxyphenyl)-3-(4-(quinolin-2-ylmethoxy)phenyl)furan-2(5H)-one]"
5,≤ 50,"COc1ccc(C2=C(c3ccc(OCc4ccc5ccccc5n4)cc3)C(=O)OC2)cc1C#N [Example 55, 2-Methoxy-5-(5-oxo-4-(4-(quinolin-2-ylmethoxy)phenyl)-2,5-dihydrofuran-3-yl)benzonitrile]"
6,≤ 50,"COc1ccc(C2=C(c3ccc(OCc4ccc5ccccc5n4)cc3)C(=O)OC2)cc1 [Example 59, 4-(4-Methoxyphenyl)-3-(4-(quinolin-2-ylmethoxy)phenyl)furan-2(5H)-one]"
7,≤ 50,"CN1CC(c2ccncc2)=C(c2ccc(OCc3ccc4ccccc4n3)cc2)C1=O [Example 94, 1-Methyl-4-(pyridin-4-yl)-3-(4-(quinolin-2-ylmethoxy)phenyl)-1H-pyrrol-2(5H)-one]"
8,≤ 50,"COc1ccc(C2=C(c3ccc(OCc4ccc5ccccc5n4)cc3)C(=O)N(C)C2)cc1 [Example 125, 4-(4-Methoxyphenyl)-1-methyl-3-(4-(quinolin-2-ylmethoxy)phenyl)-1H-pyrrol-2(5H)-one]"
9,> 50,"COc1ccc(C2=C(c3ccc(OCc4ccc5ccccc5n4)cc3Cl)COC2=O)cc1 [Example 424, 4-(2-chloro-4-(quinolin-2-ylmethoxy)phenyl)-3-(4-methoxyphenyl)furan-2(5H)-one]"
10,≤ 50,"O=c1o[nH]c(-c2ccncc2)c1-c1ccc(OCc2ccc3ccccc3n2)cc1 [Example 1094, 3-(Pyridin-4-yl)-4-(4-(quinolin-2-ylmethoxy)phenyl)isoxazol-5(2H)-one]"

# System: apomorphine induced stereotypes
# Test: not given
# Settings: rats; cited from earlier work
row,SMILES,apomorphine induced stereotypes
1,COc1ccc(Cc2nccc3cc(OC)c(OC)cc23)cc1OC [papaverine],reduces

# System: rat brain dopamine levels
# Test: not given
# Settings: rats; cited from earlier work
row,SMILES,rat brain dopamine levels
1,COc1ccc(Cc2nccc3cc(OC)c(OC)cc23)cc1OC [papaverine],reduces

# System: haloperidol induced catalepsy
# Test: not given
# Settings: rats; cited from earlier work
row,SMILES,haloperidol induced catalepsy
1,COc1ccc(Cc2nccc3cc(OC)c(OC)cc23)cc1OC [papaverine],increases
